“Also recorded” adds a separate entry of the source.
What was measured:
Piezo1 [1] = target: T1, Piezo1 (Mus musculus, UniProt E2JF22); assay: Intracellular calcium concentration (Fluo-8) in control or Piezo1 knock-down MLO-Y4 cells; type: cell-based, murine; conditions: for calcium influx / increase of intracellular calcium in Piezo1 knock-down cells: Piezo1 knock-down (sh-Piezo1) MLO-Y4 cells
T1 construct: To identify Piezo1 stimulators, we treated MLO-Y4 cells with compounds; endogenous in cells; host or cells: MLO-Y4 (murine osteocyte-like cell line); control sh-Luc cells, with sh-Piezo1 knock-down cells as the specificity control
T1 sequence (E2JF22 whole entry): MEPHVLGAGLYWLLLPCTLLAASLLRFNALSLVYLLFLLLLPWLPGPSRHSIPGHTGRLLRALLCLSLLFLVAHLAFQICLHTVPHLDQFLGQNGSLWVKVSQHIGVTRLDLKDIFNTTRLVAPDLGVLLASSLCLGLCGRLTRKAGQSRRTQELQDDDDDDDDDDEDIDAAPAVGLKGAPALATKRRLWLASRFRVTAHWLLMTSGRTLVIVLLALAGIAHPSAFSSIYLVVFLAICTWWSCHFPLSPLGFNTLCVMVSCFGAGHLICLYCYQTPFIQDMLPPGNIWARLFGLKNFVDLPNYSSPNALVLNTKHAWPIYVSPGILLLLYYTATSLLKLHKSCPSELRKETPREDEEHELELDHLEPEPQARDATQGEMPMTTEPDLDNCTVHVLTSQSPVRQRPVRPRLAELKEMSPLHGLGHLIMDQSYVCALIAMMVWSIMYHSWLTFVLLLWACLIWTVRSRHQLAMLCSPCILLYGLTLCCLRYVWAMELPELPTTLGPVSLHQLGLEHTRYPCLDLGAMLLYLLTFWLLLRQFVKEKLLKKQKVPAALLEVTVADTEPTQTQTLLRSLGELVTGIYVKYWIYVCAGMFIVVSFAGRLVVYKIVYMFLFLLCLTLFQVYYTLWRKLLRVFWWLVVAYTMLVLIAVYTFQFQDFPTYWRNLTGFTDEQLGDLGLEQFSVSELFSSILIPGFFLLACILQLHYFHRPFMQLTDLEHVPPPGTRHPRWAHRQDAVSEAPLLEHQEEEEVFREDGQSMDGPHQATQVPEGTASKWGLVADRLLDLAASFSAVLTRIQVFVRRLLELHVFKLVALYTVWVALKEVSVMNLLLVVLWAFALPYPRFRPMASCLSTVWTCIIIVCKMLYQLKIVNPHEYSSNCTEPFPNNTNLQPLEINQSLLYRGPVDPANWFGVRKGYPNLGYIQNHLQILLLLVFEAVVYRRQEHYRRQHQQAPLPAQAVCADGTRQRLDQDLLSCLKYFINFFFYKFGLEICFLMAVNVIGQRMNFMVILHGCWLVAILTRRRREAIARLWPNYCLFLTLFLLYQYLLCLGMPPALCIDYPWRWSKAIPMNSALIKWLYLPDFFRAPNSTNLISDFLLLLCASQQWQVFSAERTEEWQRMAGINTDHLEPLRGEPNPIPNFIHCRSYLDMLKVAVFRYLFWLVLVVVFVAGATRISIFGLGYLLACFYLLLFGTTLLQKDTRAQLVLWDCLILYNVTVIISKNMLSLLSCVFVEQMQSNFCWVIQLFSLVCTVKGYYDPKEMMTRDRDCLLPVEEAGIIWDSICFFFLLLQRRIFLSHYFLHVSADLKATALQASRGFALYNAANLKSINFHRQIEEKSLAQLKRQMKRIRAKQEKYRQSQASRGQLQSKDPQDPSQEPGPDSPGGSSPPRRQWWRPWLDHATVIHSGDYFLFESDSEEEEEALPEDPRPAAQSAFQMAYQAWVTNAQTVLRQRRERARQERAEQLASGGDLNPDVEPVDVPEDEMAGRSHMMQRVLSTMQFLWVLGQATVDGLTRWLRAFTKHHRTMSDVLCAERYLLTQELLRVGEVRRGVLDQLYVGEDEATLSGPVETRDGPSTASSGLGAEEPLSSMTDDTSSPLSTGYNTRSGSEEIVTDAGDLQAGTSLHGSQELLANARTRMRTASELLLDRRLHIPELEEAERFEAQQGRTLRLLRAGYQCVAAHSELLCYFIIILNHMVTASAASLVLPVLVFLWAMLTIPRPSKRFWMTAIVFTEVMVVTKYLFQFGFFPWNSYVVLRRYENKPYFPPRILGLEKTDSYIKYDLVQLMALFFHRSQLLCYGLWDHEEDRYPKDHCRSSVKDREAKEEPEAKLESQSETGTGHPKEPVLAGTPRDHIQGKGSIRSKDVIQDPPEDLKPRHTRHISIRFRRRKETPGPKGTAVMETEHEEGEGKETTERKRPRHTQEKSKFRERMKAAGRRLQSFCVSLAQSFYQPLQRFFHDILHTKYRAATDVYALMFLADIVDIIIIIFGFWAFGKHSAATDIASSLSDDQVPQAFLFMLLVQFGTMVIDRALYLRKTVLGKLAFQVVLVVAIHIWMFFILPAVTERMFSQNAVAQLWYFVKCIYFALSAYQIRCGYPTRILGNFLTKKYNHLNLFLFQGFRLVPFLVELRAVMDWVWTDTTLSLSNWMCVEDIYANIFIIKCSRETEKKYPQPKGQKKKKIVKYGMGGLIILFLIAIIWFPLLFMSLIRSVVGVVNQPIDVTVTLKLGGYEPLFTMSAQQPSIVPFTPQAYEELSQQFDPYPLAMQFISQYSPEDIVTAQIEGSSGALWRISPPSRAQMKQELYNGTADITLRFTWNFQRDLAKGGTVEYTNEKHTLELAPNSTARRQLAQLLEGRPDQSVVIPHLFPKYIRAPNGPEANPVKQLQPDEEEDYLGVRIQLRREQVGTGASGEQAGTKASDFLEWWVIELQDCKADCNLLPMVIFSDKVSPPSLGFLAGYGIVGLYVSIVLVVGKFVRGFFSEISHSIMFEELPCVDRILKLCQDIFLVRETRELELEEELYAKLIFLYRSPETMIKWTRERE
Description: Calcium concentration measurement. For intracellular calcium concentration measurement under fluid flow condition, 1×10^5 MLO-Y4 cells were seeded in a μ-Slide I Luer (0.4 mm) fluid chamber slide (MIDI, Germany) overnight. One hour before initiating fluid flow, the culture medium was removed and 100 μl Hank's Buffer with Hepes (HHBS) containing 4μM Fluo-8 (Abcam, Cambridge, MA) was added to the culture, as described by the manufacturer. The cells were then cultured at 37° C. for 30 minutes. After additional incubation at room temperature for 30 minutes, the chamber slide was placed under a confocal microscope in order to record the intensity of fluorescence of MLO-Y4 cells. Fluorescence was recorded for 3 minutes before starting fluid flow using HHBS and then recorded for another 10 minutes. The increase of intracellular concentration was calculated by subtracting the initial mean fluorescence. For measuring intracellular calcium concentration in cells with Yoda1 treatment, we cultured 4,000 MLO-Y4 cells per well in a 96-well-plate. We preloaded the cells with Fluo-8 as described by the manufacturer and read the intensity of the fluorescence using a Victor X3 multi-label plate reader (Perkin Elmer, Waltham, MA) immediately after the treatment. We measured the fluorescence for 5 minutes at an interval of 20 seconds. The percentage of increase in intracellular calcium concentration was calculated as (Fx-F0)/F0.
To identify Piezo1 stimulators, we treated MLO-Y4 cells with compounds Yoda1, YW-3-159, W-3-163, W-3-168-1, W-3-168-2, W-3-170, W-3-173-1, W-3-173-2, and YW-3-174. Gene expression of Wnt1, Ptgs2, and Tnfrsf11b was measured to determine the activation of Piezo1. In addition, intracellular calcium concentration was measured to determine the activity of Piezo1 channel. […] Yoda1 was used as a positive control in all experiments.

Piezo1 [2] = target: T1, Piezo1; assay: qPCR gene expression of Wnt1, Ptgs2 and Tnfrsf11b in MLO-Y4 cells; type: cell-based, murine; conditions: 10 μM, 2 hours
Description: Cell cultures. MLO-Y4 cells were cultured in α-MEM supplemented with 5% FBS, 5% BCS, and 1% penicillin/streptomycin/glutamine. Fifteen dynes/cm^2 oscillatory fluid shear stress was applied on MLO-Y4 cells at 1 Hz for 2 hours using an IBDI pump system (IBIDI, German). For Yoda1 treatment, cells were cultured in the presence of 10 μM Yoda1 (Sigma, St. Louis, MO) or DMSO for 2 hours. Immediately after the treatments, we isolated RNA from cells using RNeasy mini kit (Qiagen, German) for qPCR or RNA-seq analysis. To silence Piezo1, we generated Piezo1 shRNA expression plasmid using the following oligonucleotides in the pLKO.1-TRC cloning vector (Addgene Plasmid #10878, a gift from David Root): forward oligo: 5′-CCGGTC-[…]-3′ (SEQ ID NO: 1); reverse oligo: 5′-[…]-CGA-3′ (SEQ ID NO: 2) (Zhang et al., 2017). Yap1 shRNA (TRCN0000238432) and Taz shRNA (TRCN0000095951) were purchased from Sigma (St. Louis, MO). A shRNA against firefly luciferase was used as a control (Sigma, St. Louis, MO). For virus production, HEK293T cells were cultured in a 6-well culture plate and co-transfected with a total 3 μg of lentiviral shRNA vector, pMD2G (Addgene plasmid #12259, a gift from Didier Trono), and psPAX2 (Addgene plasmid #12260, a gift from Didier Trono) at the ratio of 2:0.9:0.4 using TransIT-LT1 transfection reagent (Mirus, Madison, WI). Culture media was changed 12 hours after transfection and viral supernatants were collected 48 hours after media change. Viral supernatants were filtered through a 0.45 μm filter and used immediately to transduce cells cultured in a 10 cm dish. Cells were then subjected to selection with G418 (100 μg/ml) or puromycin (25 μg/ml) for 5 days before treatment. To overexpress Piezo1 in MLO-Y4 cells, we transfected mPiezo1-IRES-eGFP (Addgene plasmid #80925, a gift from Ardem Patapoutian) into MLO-Y4 cells using TransIT-LT1 transfection reagent (Mirus, Madison, WI) and then treated these cells with 15 dynes/cm^2 oscillatory fluid shear stress at 1 Hz for 2 hours. Plasmids for expression of Cas9 and sgRNAs for knocking out Piezo1 in UAMS-32 cells were prepared by inserting oligonucleotides encoding the desired sgRNA sequence into the pX458 vector using the protocol recommended by the Zhang laboratory (Cong et al., 2013). Plasmids expressing Cas9 and Piezo1 sgRNAs were transfected into UAMS-32 cells using TransIT-LT1 transfection reagent (Mirus, Madison, WI). Cells were sorted into 96-well plates for single cell cloning 48 hours after transfection. Single cell colonies were then screened for homozygous deletion using the following primers: Forward: 5′-[…]-3′ (SEQ ID NO: 5), Reverse: 5′-[…]-3′ (SEQ ID NO: 6). All homozygous mutant cell colonies were then pooled together for further analysis. Cas9 transfected cells were used as a control. All in vitro cell culture experiments were performed three times with three technical replicates.
Quantitative PCR. Organs and whole bones were harvested from animals, removed of soft tissues, and stored immediately in liquid nitrogen. We prepared osteocyte-enriched bone by removing the ends of femurs and tibias and then flushing the bone marrow with PBS. We then scraped the bone surface with a scalpel and froze them in liquid nitrogen for later RNA isolation, or decalcified them for genomic DNA isolation. We isolated total RNA using TRIzol (Life technologies, NY), according to the manufacturer's instructions and prepared cDNA using High Capacity first strand cDNA synthesis kit (Life Technologies). We performed quantitative RT-PCR using the following Taqman assays from Applied Biosystems: Piezo1 (Mm01241549_m1); Piezo2 (Mm01265861_m1); Ptgs2 (Mm00478374_m1); Cyr61 (Mm00487498_m1); Wnt1 (Mm01300-555_g1); Yap1 (Mm011432-63_m1); Taz (Mm01289583_m1); Tnfsf11 Mm00441906_m1; Tnfrsf11b (Mm00435452_m1); Sost (Mm00470479_m1); and ribosomal protein S2 (Mrps2) (Mm00475529_m1). We calculated relative mRNA amounts using the ΔCt method (Livak and Schmittgen, 2001). […]

[3] = Yap1/Taz knock-down MLO-Y4 cells

Fc1ccc(Cl)c(CSc2nnc(-c3cnccn3)s2)c1Cl [YW-3-170]
calcium influx compared with Yoda1 (Piezo1 [1]; MLO-Y4 cells, 10 μM): much more calcium influx than Yoda1 | intracellular calcium concentration compared with Yoda1 (Piezo1 [1]; MLO-Y4 cells, at 2 μM, 5 μM, and 10 μM): higher intracellular calcium concentration than Yoda1 | intracellular calcium concentration, dose dependence (Piezo1 [1]; MLO-Y4 cells, different doses): dose-dependently | calcium influx / increase of intracellular calcium in Piezo1 knock-down cells (Piezo1 [1]; 10 μM): completely blocked; also recorded: loss of their ability to stimulate calcium influx | Ptgs2 expression compared with positive control Yoda1 (Piezo1 [2]; MLO-Y4 cells): higher Ptgs2 expression than the positive control | Ptgs2 expression compared with vehicle (Piezo1 [2]; MLO-Y4 cells): higher Ptgs2 expression | Tnfrsf11b expression compared with vehicle (Piezo1 [2]; MLO-Y4 cells): higher Tnfrsf11b expression | Wnt1 expression compared with positive control Yoda1 (Piezo1 [2]; MLO-Y4 cells): higher Wnt1 expression than the positive control | Wnt1 expression compared with vehicle (Piezo1 [2]; MLO-Y4 cells): higher Wnt1 expression

Clc1cccc(Cl)c1CSc1nnc(-c2cnccn2)s1 [Yoda1]
intracellular calcium concentration (Piezo1 [1]; MLO-Y4 cells, 10 μM, vs DMSO): increased | calcium influx / increase of intracellular calcium in Piezo1 knock-down cells (Piezo1 [1]; 10 μM): completely prevented; also recorded: completely blocked | Ptgs2 expression compared with vehicle (Piezo1 [2]; MLO-Y4 cells): stimulated expression; also recorded: higher Ptgs2 expression | Tnfrsf11b expression compared with vehicle (Piezo1 [2]; MLO-Y4 cells): stimulated expression; also recorded: higher Tnfrsf11b expression | Wnt1 expression compared with vehicle (Piezo1 [2]; MLO-Y4 cells): stimulated expression; also recorded: higher Wnt1 expression | changes in gene expression (Ptgs2, Wnt1, Tnfrsf11b) after silencing of Piezo1 (Piezo1 [2]; Piezo1 knock-down MLO-Y4 cells): completely prevented | increase of Ptgs2 after silencing Yap1 and Taz (Piezo1 [2]; [3]): significantly blunted | increase of Tnfrsf11b after silencing Yap1 and Taz (Piezo1 [2]; [3]): significantly blunted | increase of Wnt1 after silencing Yap1 and Taz (Piezo1 [2]; [3]): significantly blunted

Reference: patent US20240059685A1, “PIEZO1 AGONISTS FOR THE PROMOTION OF BONE FORMATION” (BIOVENTURES, LLC, priority 2019, published 2024)
